Results on 25 compounds are retold here after patent publication US20240101570A1 (AMGEN INC., priority 2020, published 2024).

The test system of one experiment is HCT116 MTAP null cells. Briefly: HCT116 MTAP null cell proliferation / viability (CellTiter-Glo, 6 days). Type of experiment: cell-based. Particulars: HCT116-MTAP null, 144 h, HCT116 MTAP null cells, 6 days, CellTiter-Glo; read-out: HCT-116 MTAP null IC50. The method in brief: (§1)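 IC50 values derive from sigmoidal dose-response fits, some with Hill slope fixed at −1 and top constrained to 100%, others from 4-parameter logistic models. They reflect CellTiter-Glo viability after 6 days of compound exposure at up to 10 or 50 μM.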
In general terms: In ATP-based viability assays light output follows the ATP content of the culture.

The test system of the next experiment is HCT116 WT cells. As to the kind of experiment: HCT116 WT cell proliferation / viability (CellTiter-Glo, 6 days). As to conditions: Homo sapiens, HCT-116, 144 h, HCT116 WT cells, 6 days, CellTiter-Glo; read-out: HCT-116 WT IC50. Type of experiment: cell-based. The method in brief: as §1

A value given as a limit tells only on which side of the number the result lay.

As to `C[C@H](c1cnc(C(F)(F)F)cn1)N(C)C(=O)c1ccc2nc(N)c3cnn(C)c3c2c1` [Example 776, 4-amino-N,1-dimethyl-N-((1R)-1-(5-(trifluoromethyl)-2-pyrazinyl)ethyl)-1H-pyrazolo[4,3-c]quinoline-8-carboxamide], the IC50 is 150 nM in the experiment with HCT116 MTAP null cells and more than 10000 nM in the experiment with HCT116 WT cells.

For `CN(Cc1ccc(C(F)(F)F)c(F)c1)C(=O)c1ccc2nc(N)c3cnn(C)c3c2c1` [Example 526, 4-amino-N-(3-fluoro-4-(trifluoromethyl)benzyl)-N,1-dimethyl-1H-pyrazolo[4,3-c]quinoline-8-carboxamide], the IC50 in the experiment with HCT116 MTAP null cells was 169 nM; with HCT116 WT cells, 6950 nM.

In the case of `CCN(C(=O)c1ccc2nc(N)c3c(c2c1)COC3)[C@@H](C)c1ccc(C#N)cc1` (single isomer, unassigned) [Example 836], the half-inhibitory concentration (IC50) with HCT116 MTAP null cells turned out to be 3640 nM; in the experiment on HCT116 WT cells, 38700 nM.

For `COC(=O)N1CC=C(c2ccc(CN(C)C(=O)c3ccc4nc(N)c5c(c4c3)COC5)nc2)CC1` [Example 430, methyl 6-((((4-amino-1,3-dihydrofuro[3,4-c]quinolin-8-yl)carbonyl)(methyl)amino)methyl)-3′,6′-dihydro[3,4′-bipyridine]-1′(2′H)-carboxylate], the figures for the IC50 in the experiment on HCT116 MTAP null cells and in the experiment on HCT116 WT cells were 312 nM and 12800 nM, respectively.

With `CCN(Cc1ccc(C(F)(F)F)cn1)C(=O)c1cc2c3c(c(N)nc2nc1Cl)COC3` [Example 537, 4-amino-7-chloro-N-ethyl-N-((5-(trifluoromethyl)-2-pyridinyl)methyl)-1,3-dihydrofuro[3,4-c][1,8]naphthyridine-8-carboxamide], the IC50 amounted to 222 nM in the experiment on HCT116 MTAP null cells and 5390 nM with HCT116 WT cells.

In the case of `Cn1cc(N(Cc2ccc(C(F)(F)F)nn2)C(=O)c2cc3c4c(c(N)nc3cc2F)COC4)cn1` [Example 750, 4-amino-7-fluoro-N-(1-methyl-1H-pyrazol-4-yl)-N-((6-(trifluoromethyl)-3-pyridazinyl)methyl)-1,3-dihydrofuro[3,4-c]quinoline-8-carboxamide], the IC50 in the experiment on HCT116 MTAP null cells is 23 nM; with HCT116 WT cells it was 767 nM.

In the case of `C[C@H](c1ncccn1)N(Cc1ccc(C(F)(F)F)cn1)C(=O)c1cnc2nc(N)c3c(c2c1)COC3` [Example 614, 4-amino-N-((1R)-1-(2-pyrimidinyl)ethyl)-N-((5-(trifluoromethyl)-2-pyridinyl)methyl)-1,3-dihydrofuro[3,4-c][1,8]naphthyridine-8-carboxamide], the IC50 in the experiment with HCT116 MTAP null cells came out at 42 nM; in the experiment on HCT116 WT cells, 255 nM.

As to `CN(Cc1ccc(C(F)(F)F)nn1)C(=O)c1cc2c3c(c(N)nc2cn1)COC3` [Example 375, 4-amino-N-methyl-N-((6-(trifluoromethyl)-3-pyridazinyl)methyl)-1,3-dihydrofuro[3,4-c][1,7]naphthyridine-8-carboxamide], the IC50 in the experiment on HCT116 MTAP null cells was determined as 1500 nM; in the experiment on HCT116 WT cells it was 6890 nM.

As to `C[C@H](c1ncn(C)n1)N(Cc1ccc(C(F)F)cn1)C(=O)c1cc2c3c(c(N)nc2cn1)COC3` [Example 667, 4-amino-N-((5-(difluoromethyl)-2-pyridinyl)methyl)-N-((1R)-1-(1-methyl-1H-1,2,4-triazol-3-yl)ethyl)-1,3-dihydrofuro[3,4-c][1,7]naphthyridine-8-carboxamide], the IC50 in the experiment with HCT116 MTAP null cells turned out to be 929 nM; with HCT116 WT cells, 7130 nM.

In the case of `CC(C)N(Cc1ccc(C(F)(F)F)nn1)C(=O)c1ccc2nc(N)c3c(c2c1)CO[C@@H]3C` [Example 393, (3R)-4-amino-3-methyl-N-(2-propanyl)-N-((6-(trifluoromethyl)-3-pyridazinyl)methyl)-1,3-dihydrofuro[3,4-c]quinoline-8-carboxamide], the IC50 with HCT116 MTAP null cells came to 113 nM; in the experiment with HCT116 WT cells, 6930 nM.

Take `Cn1cc(N(Cc2ccc(C(F)(F)F)cn2)C(=O)c2cnc3nc(N)c4c(c3c2)COC4)cn1` [Example 886, 4-amino-N-(1-methyl-1H-pyrazol-4-yl)-N-((5-(trifluoromethyl)-2-pyridinyl)methyl)-1,3-dihydrofuro[3,4-c][1,8]naphthyridine-8-carboxamide]: the IC50 was 1690 nM in the experiment on HCT116 MTAP null cells and more than 10000 nM with HCT116 WT cells.

For the compound `CN(Cc1ccc(C2CC2)cn1)C(=O)c1cc2c3c(c(N)nc2cc1Cl)COC3` [Example 478, 4-amino-7-chloro-N-((5-cyclopropyl-2-pyridinyl)methyl)-N-methyl-1,3-dihydrofuro[3,4-c]quinoline-8-carboxamide], the IC50 with HCT116 MTAP null cells was 82 nM; in the experiment with HCT116 WT cells it was 9580 nM.

With `C[C@H](c1ncccn1)N(Cc1ccc(C(F)(F)F)cn1)C(=O)c1cc2c3c(c(N)nc2cc1F)COC3` [Example 435, 4-amino-7-fluoro-N-((1R)-1-(2-pyrimidinyl)ethyl)-N-((5-(trifluoromethyl)-2-pyridinyl)methyl)-1,3-dihydrofuro[3,4-c]quinoline-8-carboxamide], the IC50 in the experiment on HCT116 MTAP null cells was 14 nM; in the experiment on HCT116 WT cells, 65 nM.

In the case of `C[C@H](c1ncccn1)N(Cc1ccc(OCC(F)(F)F)nn1)C(=O)c1ccc2nc(N)c3c(c2c1)COC3` [Example 453, 4-amino-N-((1R)-1-(2-pyrimidinyl)ethyl)-N-((6-(2,2,2-trifluoroethoxy)-3-pyridazinyl)methyl)-1,3-dihydrofuro[3,4-c]quinoline-8-carboxamide], the IC50 in the experiment on HCT116 MTAP null cells came out at 35 nM; in the experiment with HCT116 WT cells, 543 nM.

Turning to `CN(Cc1ccc(Br)nn1)C(=O)c1ccc2nc(N)c3c(c2c1)COC3` [Example 327, 4-amino-N-((6-bromo-3-pyridazinyl)methyl)-N-methyl-1,3-dihydrofuro[3,4-c]quinoline-8-carboxamide], the IC50 in the experiment with HCT116 MTAP null cells is 811 nM; in the experiment with HCT116 WT cells, more than 10000 nM.

For the compound `CN(Cc1ccc(Br)cn1)C(=O)c1ccc2nc(N)c3c(c2c1)COC3` [Example 330, 4-amino-N-((5-bromo-2-pyridinyl)methyl)-N-methyl-1,3-dihydrofuro[3,4-c]quinoline-8-carboxamide], the figures for the IC50 in the experiment with HCT116 MTAP null cells and in the experiment with HCT116 WT cells were 204 nM and more than 10000 nM, respectively.

For the compound `Nc1nc2ccc(C(=O)N(Cc3ccc(C(F)(F)F)cn3)C3CCCn4ncnc43)cc2c2c1COC2` [Example 447, 4-amino-N-((8R)-5,6,7,8-tetrahydro[1,2,4]triazolo[1,5-alpyridin-8-yl)-N-((5-(trifluoromethyl)-2-pyridinyl)methyl)-1,3-dihydrofuro[3,4-c]quinoline-8-carboxamide and 4-amino-N-((8S)-5,6,7,8-tetrahydro[1,2,4]triazolo[1,5-a]pyridin-8-yl)-N-((5-(trifluoromethyl)-2-pyridinyl)methyl)-1,3-dihydrofuro[3,4-c]quinoline-8-carboxamide], the figures for the IC50 in the experiment with HCT116 MTAP null cells and with HCT116 WT cells were 31 nM and 256 nM, respectively.

With `CN(Cc1ccc(C(F)(F)F)cn1)C(=O)c1cc2c3c(c(N)nc2cn1)COC3` [Example 344, 4-amino-N-methyl-N-((5-(trifluoromethyl)-2-pyridinyl)methyl)-1,3-dihydrofuro[3,4-c][1,7]naphthyridine-8-carboxamide], the results for the IC50 in the experiment on HCT116 MTAP null cells and in the experiment on HCT116 WT cells were 244 nM and more than 10000 nM, respectively.

On to `C[C@H]1OCc2c1c(N)nc1cnc(C(=O)N(Cc3ccc(C(F)(F)F)cn3)C34CC(C3)C4)cc21` [Example 311, (3R)-4-amino-N-(bicyclo[1.1.1]pentan-1-yl)-3-methyl-N-((5-(trifluoromethyl)-2-pyridinyl)methyl)-1,3-dihydrofuro[3,4-c][1,7]naphthyridine-8-carboxamide], for which the IC50 amounted to 56 nM with HCT116 MTAP null cells and 2200 nM with HCT116 WT cells.

With `CC(C)N(Cc1ccc(C(F)(F)F)cn1)C(=O)c1cc2c(cc1F)nc(N)c1cnn(C)c12` [Example 805, 4-amino-7-fluoro-1-methyl-N-(2-propanyl)-N-((5-(trifluoromethyl)-2-pyridinyl)methyl)-1H-pyrazolo[4,3-c]quinoline-8-carboxamide], the IC50 with HCT116 MTAP null cells is 8 nM; in the experiment with HCT116 WT cells it was 121 nM.

With `C[C@H](c1ccc(-c2ccc(C(F)(F)F)cc2)cc1)N(C)C(=O)c1ccc2nc(N)c3cnn(C)c3c2c1` [Example 531, 4-amino-N,1-dimethyl-N-((1R)-1-(4′-(trifluoromethyl)[biphenyl]-4-yl)ethyl)-1H-pyrazolo[4,3-c]quinoline-8-carboxamide], the IC50 in the experiment on HCT116 MTAP null cells is 188 nM; with HCT116 WT cells, 2340 nM.

`CC(C)CN(Cc1ccc(Br)nn1)C(=O)c1ccc2nc(N)c3c(c2c1)COC3` [Example 665, 4-amino-N-((6-bromo-3-pyridazinyl)methyl)-N-(2-methylpropyl)-1,3-dihydrofuro[3,4-c]quinoline-8-carboxamide]: the IC50 in the experiment on HCT116 MTAP null cells is 37 nM; in the experiment with HCT116 WT cells, 1250 nM.

As for `Nc1nc2cnc(C(=O)N(Cc3ccc(C(F)(F)F)nn3)C3CC(F)(F)C3)cc2c2c1COC2` [Example 668, 4-amino-N-(3,3-difluorocyclobutyl)-N-((6-(trifluoromethyl)-3-pyridazinyl)methyl)-1,3-dihydrofuro[3,4-c][1,7]naphthyridine-8-carboxamide], the IC50 in the experiment with HCT116 MTAP null cells is 304 nM; with HCT116 WT cells it was more than 10000 nM.

In the case of `CCN(Cc1ccc(C(F)(F)F)nn1)C(=O)c1cc2c(cc1Cl)nc(N)c1cnn(C)c12` [Example 794, 4-amino-7-chloro-N-ethyl-1-methyl-N-((6-(trifluoromethyl)-3-pyridazinyl)methyl)-1H-pyrazolo[4,3-c]quinoline-8-carboxamide], the values for the IC50 in the experiment on HCT116 MTAP null cells and in the experiment with HCT116 WT cells were 20 nM and 499 nM, respectively.

With `C[C@H](c1ncccn1)N(Cc1ccc(C(F)(F)F)cn1)C(=O)c1cc2c3c(c(N)nc2cc1Cl)COC3` [Example 655, 4-amino-7-chloro-N-((1R)-1-(2-pyrimidinyl)ethyl)-N-((5-(trifluoromethyl)-2-pyridinyl)methyl)-1,3-dihydrofuro[3,4-c]quinoline-8-carboxamide], the IC50 in the experiment with HCT116 MTAP null cells turned out to be 16 nM; in the experiment on HCT116 WT cells, 294 nM.

As a reminder, the IC50 is the concentration needed to halve the response being measured.
